Source: PubChem BioAssay (NCI)
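Briefly, cells in 96-well plates were exposed to five compound concentrations for 48 h, and endpoints were estimated by linear interpolation. At the GI50, growth is halved. TGI denotes the concentration required for complete inhibition of growth.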

What was measured:
Test in all cases: inhibition of tumour cell growth, NCI panel, 48 h
A498 renal = test system: A498 renal
COLO 205 colon = test system: COLO 205 colon
K-562 leukemia = test system: K-562 leukemia
LOX IMVI melanoma = test system: LOX IMVI melanoma
OVCAR-8 ovarian = test system: OVCAR-8 ovarian
RXF 393 renal = test system: RXF 393 renal
SF-295 CNS = test system: SF-295 CNS
UO-31 renal = test system: UO-31 renal
BT-549 breast = test system: BT-549 breast
DU-145 prostate = test system: DU-145 prostate

Row | Structure (SMILES) | TGI (A498 renal) [µM] | TGI (COLO 205 colon) [µM] | TGI (K-562 leukemia) [µM] | TGI (LOX IMVI melanoma) [µM] | TGI (OVCAR-8 ovarian) [µM] | TGI (RXF 393 renal) [µM] | TGI (SF-295 CNS) [µM] | TGI (UO-31 renal) [µM] | GI50 (A498 renal) [µM] | GI50 (COLO 205 colon) [µM] | GI50 (K-562 leukemia) [µM] | GI50 (LOX IMVI melanoma) [µM] | GI50 (OVCAR-8 ovarian) [µM] | GI50 (RXF 393 renal) [µM] | GI50 (SF-295 CNS) [µM] | GI50 (UO-31 renal) [µM] | GI50 (BT-549 breast) [µM] | TGI (BT-549 breast) [µM] | GI50 (DU-145 prostate) [µM] | TGI (DU-145 prostate) [µM]
1 | O=C1/C(=N\O)S(=O)(=O)c2ccccc21 | > 100 | > 100 | > 100 | > 100 | > 100 | > 100 | > 100 | > 100 | – | – | – | – | – | – | – | – | – | – | – | –
2 | CC(=O)[CH-]C(=O)c1ccccc1.CC(=O)[CH-]C(=O)c1ccccc1.CC(=O)[CH-]C(=O)c1ccccc1.[In+3] | 56.8 | 85.4 | > 100 | > 100 | > 100 | > 100 | 93.5 | 94 | 23.2 | 31.9 | 31 | 11 | 24.9 | 48.3 | 24.2 | 29.7 | – | – | – | –
3 | O=C1c2ccc3c4c(ccc(c24)C(=O)N1CCCNCc1ccccc1Cl)C(=O)N(CCCNCc1ccccc1Cl)C3=O | 1.43 | 0.166 | 1.12 | – | 0.533 | 0.366 | 1.22 | – | 0.712 | 0.0896 | 0.183 | – | 0.148 | 0.121 | 0.494 | – | 0.87 | 1.8 | 0.261 | 0.86
4 | Cc1nn(-c2ccc(Cl)cc2)c2nc3c(nc12)C(=O)C(=O)c1ccccc1-3 | 2.96 | 4.86 | – | 5.89 | > 100 | 64.6 | 3.43 | 7.14 | 1.27 | 2.03 | – | 2.08 | 21.7 | 19.7 | 1.72 | 1.82 | 1.57 | 4.76 | 1.98 | 3.57
5 | C=C1c2ccoc2C[C@H]2[C@H]1CC[C@@]1(O)[C@@](C)(C(=O)OC)CCC[C@]21C | 40.8 | 55 | – | 36.7 | > 100 | > 100 | 81.9 | > 100 | 21.9 | 20 | – | 17.6 | > 100 | 48 | 27.9 | 33.9 | 26 | 60.3 | 38.4 | > 100
6 | Cc1[nH]c2ccc(F)cc2c1-c1nc2c3cccnc3c3ncccc3c2[nH]1 | > 100 | – | > 100 | – | > 100 | > 100 | > 100 | – | 0.944 | 0.147 | 0.353 | – | 0.345 | 0.354 | 0.428 | – | 0.295 | > 100 | 0.308 | > 100
7 | O=C(O)c1nc(-c2ccc(Cl)c(Cl)c2)nc2ccc(Cl)cc12 | > 100 | > 100 | > 10 | – | > 100 | 69.4 | > 100 | > 100 | – | – | – | – | – | – | – | – | – | – | – | –
8 | Cc1nn(-c2ccc([N+](=O)[O-])cc2)c2ncnc(N/N=C/c3ccccc3O)c12 | > 66.9 | 10.4 | > 100 | 1.47 | – | 1.62 | 10.3 | – | 2.92 | 0.385 | 0.448 | 0.22 | – | 0.366 | 1.14 | – | 0.431 | > 42.4 | 0.382 | > 100
9 | COc1ccc(N(/C=C/C(=O)C(F)(F)F)CC(=O)c2ccc(F)cc2)cc1 | 37.8 | 84.5 | – | 39.1 | > 100 | 77.4 | 91 | > 100 | 14.2 | 26.9 | – | 16.4 | 32.1 | 28.8 | 27.4 | 36.3 | 30.4 | > 100 | 36.2 | > 100
10 | CC(C)(c1ccccc1)c1ccc(Oc2ccc(C#N)c(C#N)c2)cc1 | > 100 | > 100 | > 100 | > 100 | > 100 | > 100 | > 100 | 40.5 | > 100 | > 100 | – | > 100 | > 100 | – | – | – | – | – | – | –
11 | Cn1cc(-c2csc(-c3cn(CCCN4CCCCC4)c4ccccc34)n2)c2cccnc21 | 28.7 | 3.61 | – | 3.11 | – | 3.14 | 3.18 | 2.93 | 13.7 | 1.82 | – | 1.66 | – | 1.59 | 1.71 | 1.51 | 1.56 | 2.94 | 1.75 | 3.17
12 | CCc1ccccc1NC(=O)/C(N=O)=C(/C)O | > 100 | > 100 | > 100 | > 100 | > 100 | > 100 | > 100 | > 100 | – | – | – | – | – | – | – | – | – | – | – | –
13 | O=C(NC(=Nc1ccccc1)SCCSC(=Nc1ccccc1)NC(=O)c1cccs1)c1cccs1 | > 100 | > 100 | > 100 | > 100 | > 100 | 68.9 | > 100 | 92.8 | – | – | – | – | – | – | – | – | – | – | – | –
14 | O=C(N/C(=C\c1ccc(/C=C(\NC(=O)c2ccccc2)c2nc3ccccc3[nH]2)cc1)c1nc2ccccc2[nH]1)c1ccccc1 | > 100 | > 100 | > 100 | > 100 | > 100 | > 100 | > 100 | > 100 | – | – | – | – | – | – | – | – | – | – | – | –
15 | COc1ccc(CC2(Cc3ccc(OC)cc3)CCOC2=O)cc1 | > 100 | > 100 | > 100 | – | > 100 | – | > 100 | > 100 | – | – | – | – | – | – | – | – | – | – | – | –
16 | CCOc1ccc(NC(=O)C(=O)C(C(=O)c2ccc3ccccc3c2)C2OC(=O)c3ccccc32)cc1 (centres undefined) | 45.8 | 41.7 | > 100 | 33.2 | > 100 | – | – | 34 | – | – | – | – | – | – | – | – | – | – | – | –
17 | Oc1c(Cl)c(Cl)c(O)c2c1CCCC2 | 33.1 | 3.74 | – | 78.6 | 46 | 22.5 | 37.6 | 5.28 | – | – | – | – | – | – | – | – | – | 28.1 | – | –
